Test results published in paper PMC11240139, “Exploring the antitumor potential of novel quinoline derivatives via tubulin polymerization inhibition in breast cancer; design, synthesis and molecular docking” (RSC Advances, 2024).

Columns and labels:
Type in all cases: cell-based
[1] = system: MDA-MB-435 (melanoma); assay: NCI-60 SRB cytotoxicity screen; conditions: MDA-MB-435, five-dose assay
[2] = system: SK-MEL-28 (melanoma); assay: NCI-60 SRB cytotoxicity screen
[3] = system: SK-MEL-5 (melanoma); assay: NCI-60 SRB cytotoxicity screen
[4] = system: OVCAR-3 (ovarian cancer); assay: NCI-60 SRB cytotoxicity screen
[5] = system: OVCAR-4 (ovarian cancer); assay: NCI-60 SRB cytotoxicity screen
[6] = system: 786-0 (renal cancer); assay: NCI-60 SRB cytotoxicity screen
[7] = system: A498 (renal cancer); assay: NCI-60 SRB cytotoxicity screen
[8] = system: CAKI-1 (renal cancer); assay: NCI-60 SRB cytotoxicity screen
[9] = system: SN12C (renal cancer); assay: NCI-60 SRB cytotoxicity screen
[10] = system: TK-10 (renal cancer); assay: NCI-60 SRB cytotoxicity screen
[11] = system: UO-31 (renal cancer); assay: NCI-60 SRB cytotoxicity screen
[12] = system: PC-3 (prostate cancer); assay: NCI-60 SRB cytotoxicity screen
[13] = system: MCF7 (breast cancer); assay: NCI-60 SRB cytotoxicity screen
[14] = system: MDA-MB-231/ATCC (breast cancer); assay: NCI-60 SRB cytotoxicity screen
[15] = system: MDA-MB-468 (breast cancer); assay: NCI-60 SRB cytotoxicity screen
Method in brief: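 NCI-60 single-dose (10^−5 M) screen in MDA-MB-468 with SRB protein-stain read-out after 48 h exposure; cells TCA-fixed and absorbance read at 540 nm. Reported as GI%, with compounds meeting NCI activity criteria then run at five doses (0.01–100 μM).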

[16] = system: 60 cancer cell lines (NCI); assay: NCI-60 single-dose screen, overall verdict over the panel; conditions: single dose 10 μM, whole panel
Method in brief: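 Compounds were tested at a single 10^−5 M dose across the NCI 60 cell line panel, with cells preincubated 24 h before treatment. Viability was measured by TCA fixation and sulforhodamine B staining, absorbance 540 nm. % cytotoxicity = [1 − (sample/negative control absorbance)] × 100.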

[17] = Homo sapiens, SK-MEL-28, five-dose assay
[18] = Homo sapiens, SK-MEL-5, five-dose assay
[19] = Homo sapiens, OVCAR-3, five-dose assay
[20] = Homo sapiens, A498, five-dose assay
[21] = Homo sapiens, UO-31, five-dose assay
[22] = Homo sapiens, MDA-MB-468, five-dose assay

**Q.** Which LC50 (lethal concentration, 50% net cell kill) ([1]; Homo sapiens) does the source give for CCc1cccc2cc(-c3cc(-c4cc(OC)c(OC)c(OC)c4)[nH]c(=O)c3C#N)c(Cl)nc12 [Compound 4c, 4-(2-Chloro-8-ethylquinolin-3-yl)-2-oxo-6-(3,4,5-trimethoxyphenyl)-1,2-dihydropyridine-3-carbonitrile] here?
**A.** > 100 µM

**Q.** What about the TGI [1] of the same molecule?
**A.** >100 µM

**Q.** What about the GI50 [2, 17] of the same molecule?
**A.** 21.1 µM

**Q.** And the LC50 (concentration causing 50% net cell kill) [2, 17]?
**A.** > 100 µM

**Q.** And the inhibition at 10 µM ([2]; Homo sapiens, SK-MEL-28, single dose 10 μM, read-out: growth inhibition (GI%))?
**A.** 68.9%

**Q.** What about the TGI ([2]; SK-MEL-28, five-dose assay) of the same molecule?
**A.** >100 µM

**Q.** What about the GI50 [3, 18] of the same molecule?
**A.** 17.5 µM

**Q.** And the LC50 [3, 18]?
**A.** > 100 µM

**Q.** And the inhibition at 10 µM ([3]; Homo sapiens, SK-MEL-5, single dose 10 μM, read-out: growth inhibition (GI%))?
**A.** 78.6%

**Q.** What about the TGI ([3]; SK-MEL-5, five-dose assay) of the same molecule?
**A.** 90.20 µM

**Q.** And the GI50 [4, 19]?
**A.** 14.2 µM

**Q.** What about the LC50 (50% lethal concentration) [4, 19] of the same molecule?
**A.** 62.3 µM

**Q.** And the inhibition at 10 µM ([4]; Homo sapiens, OVCAR-3, single dose 10 μM, read-out: growth inhibition (GI%))?
**A.** > 100%

**Q.** What about the TGI ([4]; OVCAR-3, five-dose assay) of the same molecule?
**A.** 29.80 µM

**Q.** And the “growth inhibition (GI%)” value ([4]; OVCAR-3, single dose 10 μM)?
**A.** lethal effect

**Q.** What about the GI50 ([5]; Homo sapiens, OVCAR-4, five-dose assay) of the same molecule?
**A.** 17.2 µM

**Q.** What about the CC50 ([5]; Homo sapiens, OVCAR-4, five-dose assay, read-out: LC50 (the source's name)) of the same molecule?
**A.** > 100 µM

**Q.** And the inhibition at 10 µM ([5]; Homo sapiens, OVCAR-4, single dose 10 μM, read-out: growth inhibition (GI%))?
**A.** > 100%

**Q.** What about the TGI ([5]; OVCAR-4, five-dose assay) of the same molecule?
**A.** >100 µM

**Q.** What about the “growth inhibition (GI%)” value ([5]; OVCAR-4, single dose 10 μM) of the same molecule?
**A.** lethal effect

**Q.** What about the TGI ([6]; 786-0, five-dose assay) of the same molecule?
**A.** 26.70 µM

**Q.** What about the “growth inhibition (GI%)” value ([6]; 786-0, single dose 10 μM) of the same molecule?
**A.** lethal effect

**Q.** And the GI50 ([6]; Homo sapiens, 786-0, five-dose assay)?
**A.** 11.7 µM

**Q.** And the CC50 ([6]; Homo sapiens, 786-0, five-dose assay, read-out: LC50 (the source's name))?
**A.** 61.1 µM

**Q.** What about the inhibition at 10 µM ([6]; Homo sapiens, 786-0, single dose 10 μM, read-out: growth inhibition (GI%)) of the same molecule?
**A.** > 100%

**Q.** And the TGI ([7]; A498, five-dose assay)?
**A.** 45.20 µM

**Q.** What about the “growth inhibition (GI%)” value ([7]; A498, single dose 10 μM) of the same molecule?
**A.** lethal effect

**Q.** And the GI50 [7, 20]?
**A.** 15.8 µM

**Q.** And the LC50 (concentration killing 50% of cells) [7, 20]?
**A.** > 100 µM

**Q.** And the inhibition at 10 µM ([7]; Homo sapiens, A498, single dose 10 μM, read-out: growth inhibition (GI%))?
**A.** > 100%

**Q.** What about the TGI ([8]; CAKI-1, five-dose assay) of the same molecule?
**A.** 22.90 µM

**Q.** What about the GI50 ([8]; Homo sapiens, CAKI-1, five-dose assay) of the same molecule?
**A.** 10.7 µM

**Q.** And the CC50 ([8]; Homo sapiens, CAKI-1, five-dose assay, read-out: LC50 (the source's name))?
**A.** 49.2 µM

**Q.** What about the inhibition at 10 µM ([8]; Homo sapiens, CAKI-1, single dose 10 μM, read-out: growth inhibition (GI%)) of the same molecule?
**A.** 95.1%

**Q.** And the GI50 ([9]; Homo sapiens, five-dose assay)?
**A.** 10.3 µM

**Q.** And the LC50 (concentration killing 50% of cells) ([9]; Homo sapiens, five-dose assay)?
**A.** 61.8 µM

**Q.** And the inhibition at 10 µM ([9]; Homo sapiens, single dose 10 μM, read-out: growth inhibition (GI%))?
**A.** > 100%

**Q.** What about the TGI ([9]; five-dose assay) of the same molecule?
**A.** 25.20 µM

**Q.** What about the “growth inhibition (GI%)” value ([9]; single dose 10 μM) of the same molecule?
**A.** lethal effect

**Q.** What about the GI50 ([10]; Homo sapiens, TK-10, five-dose assay) of the same molecule?
**A.** 17.5 µM

**Q.** What about the CC50 ([10]; Homo sapiens, TK-10, five-dose assay, read-out: LC50 (the source's name)) of the same molecule?
**A.** > 100 µM

**Q.** And the inhibition at 10 µM ([10]; Homo sapiens, TK-10, single dose 10 μM, read-out: growth inhibition (GI%))?
**A.** > 100%

**Q.** What about the TGI ([10]; TK-10, five-dose assay) of the same molecule?
**A.** 34.50 µM

**Q.** And the “growth inhibition (GI%)” value ([10]; TK-10, single dose 10 μM)?
**A.** lethal effect

**Q.** What about the GI50 [11, 21] of the same molecule?
**A.** 12.6 µM

**Q.** What about the LC50 (50% lethal concentration) [11, 21] of the same molecule?
**A.** > 100 µM

**Q.** What about the inhibition at 10 µM ([11]; Homo sapiens, UO-31, single dose 10 μM, read-out: growth inhibition (GI%)) of the same molecule?
**A.** > 100%

**Q.** And the TGI ([11]; UO-31, five-dose assay)?
**A.** >100 µM

**Q.** And the “growth inhibition (GI%)” value ([11]; UO-31, single dose 10 μM)?
**A.** lethal effect

**Q.** What about the GI50 ([12]; PC-3, five-dose assay) of the same molecule?
**A.** 40.3 µM

**Q.** And the TGI ([12]; PC-3, five-dose assay)?
**A.** >100 µM

**Q.** What about the CC50 ([12]; PC-3, five-dose assay, read-out: LC50 (the source's name)) of the same molecule?
**A.** > 100 µM

**Q.** And the inhibition at 10 µM ([12]; PC-3, single dose 10 μM, read-out: growth inhibition (GI%))?
**A.** 67.6%

**Q.** And the GI50 ([13]; Homo sapiens, MCF7, five-dose assay)?
**A.** 24 µM

**Q.** What about the CC50 ([13]; Homo sapiens, MCF7, five-dose assay, read-out: LC50 (the source's name)) of the same molecule?
**A.** > 100 µM

**Q.** And the inhibition at 10 µM ([13]; Homo sapiens, MCF7, single dose 10 μM, read-out: growth inhibition (GI%))?
**A.** 54.8%

**Q.** What about the TGI ([13]; MCF7, five-dose assay) of the same molecule?
**A.** >100 µM

**Q.** And the GI50 ([14]; Homo sapiens, MDA-MB-231)?
**A.** 14.5 µM

**Q.** What about the inhibition at 10 µM ([14]; Homo sapiens, MDA-MB-231, read-out: growth inhibition (GI%)) of the same molecule?
**A.** > 100%

**Q.** What about the CC50 ([14]; Homo sapiens, MDA-MB-231/ATCC, five-dose assay, read-out: LC50 (the source's name)) of the same molecule?
**A.** 69.8 µM

**Q.** And the TGI ([14]; MDA-MB-231/ATCC, five-dose assay)?
**A.** 31.80 µM

**Q.** What about the “growth inhibition (GI%)” value ([14]; MDA-MB-231/ATCC, single dose 10 μM) of the same molecule?
**A.** lethal effect

**Q.** And the GI50 [15, 22]?
**A.** 12.7 µM

**Q.** What about the LC50 (concentration killing 50% of cells) [15, 22] of the same molecule?
**A.** > 100 µM

**Q.** And the inhibition at 10 µM ([15]; Homo sapiens, MDA-MB-468, single dose 10 μM, read-out: growth inhibition (GI%))?
**A.** 51.9%

**Q.** And the TGI ([15]; MDA-MB-468, five-dose assay)?
**A.** 61.60 µM

**Q.** What about the “cytotoxic activity over the cell lines (in words)” value [16] of the same molecule?
**A.** highest level of cytotoxic activity
